Our source for the Drug metabolism and Ratio values is ChEMBL document CHEMBL3751766, “Synthesis and evaluation of atorvastatin esters as prodrugs metabolically activated by human carboxylesterases” (Bioorg Med Chem Lett, 2016).

Data set [1] concerns the target T1, Liver carboxylesterase 1 (Homo sapiens, UniProt P23141).
T1 sequence (P23141 whole entry): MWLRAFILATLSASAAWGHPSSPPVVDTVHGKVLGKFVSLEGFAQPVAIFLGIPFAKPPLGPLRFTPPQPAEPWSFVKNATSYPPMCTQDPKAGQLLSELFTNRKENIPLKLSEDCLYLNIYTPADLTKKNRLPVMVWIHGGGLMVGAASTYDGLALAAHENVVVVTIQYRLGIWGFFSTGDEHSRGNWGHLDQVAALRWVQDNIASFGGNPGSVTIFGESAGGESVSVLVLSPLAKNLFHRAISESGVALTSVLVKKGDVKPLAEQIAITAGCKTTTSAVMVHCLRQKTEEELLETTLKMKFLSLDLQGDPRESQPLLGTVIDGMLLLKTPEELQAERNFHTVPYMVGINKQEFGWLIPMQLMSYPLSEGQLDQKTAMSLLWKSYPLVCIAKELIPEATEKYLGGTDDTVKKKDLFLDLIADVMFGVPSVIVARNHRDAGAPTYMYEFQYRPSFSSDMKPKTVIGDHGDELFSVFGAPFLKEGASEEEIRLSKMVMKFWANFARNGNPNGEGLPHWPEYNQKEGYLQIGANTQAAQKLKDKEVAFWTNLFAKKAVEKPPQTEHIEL
The data set is described as follows: Prodrug activation in human liver microsomes assessed as CES1-mediated compound hydrolysis at […] after 90 mins by HPLC analysis. The following applies: 1.5 h. In general terms: Liver microsomes are vesicles of endoplasmic reticulum, rich in cytochrome P450 enzymes.

The target in data set [2] is T2, Cocaine esterase (Homo sapiens, UniProt O00748).
T2 sequence (O00748 whole entry): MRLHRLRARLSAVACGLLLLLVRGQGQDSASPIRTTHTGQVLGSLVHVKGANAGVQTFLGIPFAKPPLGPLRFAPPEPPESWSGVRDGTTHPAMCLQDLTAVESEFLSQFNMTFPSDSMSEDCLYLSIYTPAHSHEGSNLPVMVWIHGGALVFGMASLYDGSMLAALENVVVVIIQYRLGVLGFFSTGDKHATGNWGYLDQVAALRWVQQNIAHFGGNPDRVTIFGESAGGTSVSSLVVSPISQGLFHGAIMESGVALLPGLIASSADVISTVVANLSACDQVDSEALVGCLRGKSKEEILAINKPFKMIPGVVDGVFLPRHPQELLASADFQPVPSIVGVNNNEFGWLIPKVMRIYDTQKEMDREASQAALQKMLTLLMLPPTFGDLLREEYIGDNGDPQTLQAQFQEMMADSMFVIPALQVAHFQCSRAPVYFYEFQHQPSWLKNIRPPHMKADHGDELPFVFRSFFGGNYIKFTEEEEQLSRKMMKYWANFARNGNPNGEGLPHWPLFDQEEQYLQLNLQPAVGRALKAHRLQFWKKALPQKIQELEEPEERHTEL
The data set is described as follows: Prodrug activation in human intestine microsomes assessed as CES2-mediated hydrolysis of compound at […] after 90 mins by HPLC analysis. The following applies: 1.5 h.

Data set [3] is described as follows: Drug metabolism ratio of CES1 mediated compound hydrolysis in human liver microsomes to CES2-mediated compound hydrolysis in human intestine microsomes. It is filed as ADME.
A short description of data set [4]: Prodrug activation assessed as human carboxylesterase 1b-mediated compound hydrolysis at […] after 30 mins by HPLC analysis. The following applies: isolated protein, 0.5 h.
Data set [5] can be described thus: Prodrug activation assessed as human carboxylesterase1c-mediated compound hydrolysis at […] after 30 mins by HPLC analysis. The following applies: isolated protein, 0.5 h.
Data set [6] addresses T3, Arylacetamide deacetylase (Homo sapiens, UniProt P22760).
T3 sequence (P22760 whole entry): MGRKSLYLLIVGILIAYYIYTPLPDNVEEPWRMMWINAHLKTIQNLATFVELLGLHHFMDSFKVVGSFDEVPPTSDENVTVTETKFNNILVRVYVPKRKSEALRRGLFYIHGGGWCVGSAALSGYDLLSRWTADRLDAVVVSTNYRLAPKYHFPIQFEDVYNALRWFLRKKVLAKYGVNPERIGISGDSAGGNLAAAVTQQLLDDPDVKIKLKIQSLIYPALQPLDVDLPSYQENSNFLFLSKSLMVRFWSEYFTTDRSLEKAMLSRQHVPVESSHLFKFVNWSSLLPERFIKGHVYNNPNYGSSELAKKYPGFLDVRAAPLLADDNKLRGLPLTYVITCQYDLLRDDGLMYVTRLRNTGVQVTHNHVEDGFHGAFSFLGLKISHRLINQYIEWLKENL
The data set is described as follows: Prodrug activation assessed as human AADAC-mediated compound hydrolysis at […] after 30 mins by HPLC analysis. The following applies: 0.5 h.

As for `CC(C)c1c(C(=O)Nc2ccccc2)c(-c2ccccc2)c(-c2ccc(F)cc2)n1CC[C@@H](O)C[C@@H](O)CC(=O)OC1CCCCC1`, the Drug metabolism result in data set [1] and in data set [2] was “metabolite_detected” each time. Besides, the Ratio in data set [3] is reported as 4.9.

As for `COc1ccc(OC(=O)C[C@H](O)C[C@H](O)CCn2c(-c3ccc(F)cc3)c(-c3ccccc3)c(C(=O)Nc3ccccc3)c2C(C)C)cc1`, the Drug metabolism result in data set [1] and in data set [2] was “metabolite_detected” each time. In addition, in data set [3], the Ratio came to 3.4.

For the compound `CC(C)c1c(C(=O)Nc2ccccc2)c(-c2ccccc2)c(-c2ccc(F)cc2)n1CC[C@@H](O)C[C@@H](O)CC(=O)OCc1ccccc1`, the Drug metabolism result in data set [1] and in data set [2] was “metabolite_detected” each time. The Ratio in data set [3] is 9.1.

On to `CCCCOC(=O)C[C@H](O)C[C@H](O)CCn1c(-c2ccc(F)cc2)c(-c2ccccc2)c(C(=O)Nc2ccccc2)c1C(C)C`, for which the Drug metabolism result in data set [1] and in data set [2] was “metabolite_detected” in each case. The Ratio in data set [3] is recorded as 5.7.

Regarding `CC(C)c1c(C(=O)Nc2ccccc2)c(-c2ccccc2)c(-c2ccc(F)cc2)n1CC[C@@H](O)C[C@@H](O)CC(=O)Oc1ccccc1`, the Drug metabolism entry in data set [1] and in data set [2] was “metabolite_detected” in each case. In addition, the Ratio in data set [3] was 3.8.

For the compound `CCCCCCCCCCOC(=O)C[C@H](O)C[C@H](O)CCn1c(-c2ccc(F)cc2)c(-c2ccccc2)c(C(=O)Nc2ccccc2)c1C(C)C`, the Drug metabolism result in data set [1] and in data set [2] was “metabolite_detected” each time. For the same compound, in data set [3], the Ratio was 4.4.

Regarding `C=CCOC(=O)C[C@H](O)C[C@H](O)CCn1c(-c2ccc(F)cc2)c(-c2ccccc2)c(C(=O)Nc2ccccc2)c1C(C)C`, the Drug metabolism result in data set [4], in data set [1], in data set [5], in data set [2] and in data set [6] was “metabolite_detected” throughout. In addition, the Ratio in data set [3] is on record as 5.1.

Take `CCOC(=O)C[C@H](O)C[C@H](O)CCn1c(-c2ccc(F)cc2)c(-c2ccccc2)c(C(=O)Nc2ccccc2)c1C(C)C`: the Drug metabolism entry in data set [1] and in data set [2] was “metabolite_detected” in each case. The Ratio in data set [3] is given as 40.1.

With `CCCCCCCCOC(=O)C[C@H](O)C[C@H](O)CCn1c(-c2ccc(F)cc2)c(-c2ccccc2)c(C(=O)Nc2ccccc2)c1C(C)C`, the Drug metabolism entry in data set [1] and in data set [2] was “metabolite_detected” each time. Further, the Ratio in data set [3] was determined as 5.3.

Regarding `CC(C)c1c(C(=O)Nc2ccccc2)c(-c2ccccc2)c(-c2ccc(F)cc2)n1CC[C@@H](O)C[C@@H](O)CC(=O)Oc1ccc(F)cc1`, the Drug metabolism entry in data set [4], in data set [1], in data set [5], in data set [2] and in data set [6] was “metabolite_detected” each time. In addition, in data set [3], the Ratio turned out to be 1.9.

Turning to `COC(=O)C[C@H](O)C[C@H](O)CCn1c(-c2ccc(F)cc2)c(-c2ccccc2)c(C(=O)Nc2ccccc2)c1C(C)C`, the Drug metabolism result in data set [4], in data set [1], in data set [5], in data set [2] and in data set [6] was “metabolite_detected” throughout. Besides, the Ratio in data set [3] came to 30.5.

As for `CC(C)c1c(C(=O)Nc2ccccc2)c(-c2ccccc2)c(-c2ccc(F)cc2)n1CC[C@@H]1C[C@@H](O)CC(=O)O1` [ATORVASTATIN LACTONE], the Drug metabolism result in data set [1] and in data set [2] was “metabolite_notdetected” in each case. Moreover, the Ratio in data set [3] is recorded as 1.7.
